Measurements from patent US20060223837A1 (priority 2005, published 2006).
Blank lines part the entries; values can stand above or below the molecule they belong to.

What was measured:
[1] = molecular target: T1, human VR1 (Homo sapiens, UniProt Q8NER1); assay: Human VR1 functional assay (FLIPR intracellular Ca2+); assay type: cell-based; settings: for IC50: antagonism of capsaicin-induced Ca2+ increase, read-out: h IC50; for inhibition at 1 µM / inhibition at 5 µM / inhibition at 10 µM / h % I (5 μM) / h % I (10 μM): inhibition of capsaicin response; for inhibition at 1 µM: read-out: h % I (1 μM); for inhibition at 5 µM: read-out: h % I (5 μM); for Emax at 12 µM: read-out: % Response Relative to EC80 of Capsaicin (12 μM); for inhibition at 10 µM: read-out: h % I (10 μM); for EC50: agonist-induced Ca2+ increase, read-out: h EC50; for Emax at 6 µM: read-out: % Response Relative to EC80 of Capsaicin (6 μM)
T1 construct: expressed in transfected cells; host or cells: HEK293
T1 sequence (Q8NER1 whole entry): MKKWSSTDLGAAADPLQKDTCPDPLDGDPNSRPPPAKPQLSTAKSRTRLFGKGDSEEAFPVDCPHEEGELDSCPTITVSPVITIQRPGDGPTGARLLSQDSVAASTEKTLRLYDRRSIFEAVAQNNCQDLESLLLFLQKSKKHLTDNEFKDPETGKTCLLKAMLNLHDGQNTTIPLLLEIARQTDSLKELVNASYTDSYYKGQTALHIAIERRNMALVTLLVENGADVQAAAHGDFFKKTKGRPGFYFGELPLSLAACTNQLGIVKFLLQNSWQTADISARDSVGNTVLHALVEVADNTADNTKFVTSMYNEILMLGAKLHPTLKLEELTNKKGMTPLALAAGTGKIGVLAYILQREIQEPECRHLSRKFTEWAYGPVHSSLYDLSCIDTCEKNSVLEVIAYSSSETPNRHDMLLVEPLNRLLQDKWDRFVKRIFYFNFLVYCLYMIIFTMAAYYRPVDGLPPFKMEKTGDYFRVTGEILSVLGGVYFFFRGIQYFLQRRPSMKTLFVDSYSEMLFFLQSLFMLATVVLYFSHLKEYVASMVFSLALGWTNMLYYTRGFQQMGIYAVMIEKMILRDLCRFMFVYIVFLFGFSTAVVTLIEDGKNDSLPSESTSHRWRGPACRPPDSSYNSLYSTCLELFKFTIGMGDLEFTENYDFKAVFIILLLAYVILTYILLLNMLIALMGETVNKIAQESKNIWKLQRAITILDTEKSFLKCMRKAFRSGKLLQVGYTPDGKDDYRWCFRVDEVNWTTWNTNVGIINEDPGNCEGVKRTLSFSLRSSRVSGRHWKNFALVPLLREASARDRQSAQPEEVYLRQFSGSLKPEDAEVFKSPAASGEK
In short: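 Read-out was Ca2+-dye fluorescence by FLIPR: compounds at varying concentrations were added to dye-loaded human VR1 HEK293 cells and monitored 5 min before capsaicin addition ([…], approx. EC80). Dose-response data, averaged over four wells, gave EC50 or IC50.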

[2] = molecular target: T1, human VR1; assay: Human VR1 [3H]RTX binding assay; settings: for Ki: [3H]RTX binding, HEK293 membranes; for inhibition at 1 µM / h Binding % I (1 μM): inhibition of [3H]RTX binding at 1 μM; for inhibition at 1 µM: read-out: h Binding % I (1 μM)
In short: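 Inhibition of [3H]resiniferatoxin binding measured on HEK293-hVR1 membranes over 60 min at 37 C, pH 7.4 HEPES buffer containing BSA. Pellet radioactivity counted; 200 nM cold RTX gave nonspecific binding. % inhibition computed and Ki derived from duplicate measurements.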

Structure (SMILES): CC(C)(C)c1ccc(CCC(=O)Nc2ccc(-c3cccc(C(N)=O)c3)cc2)cc1 [Cpd 31, 4′-[3-(4-tert-butyl-phenyl)-propionylamino]-biphenyl-3-carboxylic acid amide]
inhibition at 10 µM [1]: 28% | inhibition at 1 µM [2]: 4%

Structure (SMILES): CC(=O)Nc1cccc(-c2ccc(NC(=O)CCc3ccc(C(F)(F)F)cc3)c3ccccc23)c1 [Cpd 84]
h % I (5 μM) [1]: 43% | h Binding % I (1 μM) [2]: 1%

Structure (SMILES): CC(C)(C)c1ccc(CCC(=O)Nc2ccc(-c3ccccc3O)cc2)cc1 [Cpd 10]
% Response Relative to EC80 of Capsaicin (12 μM) ([1]; agonist response): 67% | h % I (10 μM) [1]: 40% | Ki [2]: 0.05 µM | h Binding % I (1 μM) [2]: 89%

Structure (SMILES): CC(=O)Nc1cccc(-c2ccc(NC(=O)CCc3ccc(C(C)(C)C)cc3)cc2F)c1 [Cpd 57]
Emax at 12 µM ([1]; agonist response): 84% | Ki [2]: 0.266 µM | inhibition at 1 µM [2]: 66%

Structure (SMILES): CC(C)(C)c1ccc(CCC(=O)Nc2ccc(-c3ccc(O)cc3)cc2)cc1 [Cpd 3]
Emax at 12 µM ([1]; agonist response): 65% | inhibition at 10 µM [1]: 44% | Ki [2]: 0.051 µM | inhibition at 1 µM [2]: 90%

Structure (SMILES): CC(C)(C)c1ccc(CCC(=O)Nc2cccc(-c3cccc(O)c3)c2)cc1 [Cpd 5]
h % I (10 μM) [1]: 35% | h Binding % I (1 μM) [2]: 4%

Structure (SMILES): CC(C)(C)c1ccc(CCC(=O)Nc2ccc(-c3cccc(O)c3)cc2)cc1 [Cpd 62]
h % I (5 μM) [1]: 16% | h Binding % I (1 μM) [2]: 23%

Structure (SMILES): O=C(CCc1ccc(C(F)(F)F)cc1)Nc1ccc(-c2ccc(O)cc2)cc1 [Cpd 78]
Emax at 12 µM ([1]; agonist response): 70% | Ki [2]: 0.289 µM | inhibition at 1 µM [2]: 56%

Structure (SMILES): CC(C)(C)c1ccc(CCC(=O)Nc2ccc(-c3cccc(F)c3)cc2)cc1 [Cpd 15]
% Response Relative to EC80 of Capsaicin (12 μM) ([1]; agonist response): 80% | h Binding % I (1 μM) [2]: 41%

Structure (SMILES): CC(C)(C)c1ccc(CCC(=O)Nc2ccc(-c3cccc(C(=O)O)c3)cc2)cc1 [Cpd 30, 4′-[3-(4-tert-butyl-phenyl)-propionylamino]-biphenyl-3-carboxylic acid]
Emax at 12 µM ([1]; agonist response): 94% | EC50 [1]: 1.42 µM | inhibition at 1 µM [2]: 2%

Structure (SMILES): CC(C)(C)c1ccc(CCC(=O)Nc2ccc(-c3cccc(C(N)=O)c3)cc2CO)cc1 [Cpd 69]
h % I (10 μM) [1]: 6% | h Binding % I (1 μM) [2]: 1%

Structure (SMILES): NC(=O)c1cccc(-c2ccc(NC(=O)CCc3ccc(C(F)(F)F)cc3)cc2)c1 [Cpd 48]
% Response Relative to EC80 of Capsaicin (12 μM) ([1]; agonist response): 57% | h Binding % I (1 μM) [2]: 2.1%

Structure (SMILES): CC(C)(C)c1ccc(CCC(=O)Nc2ccc(-c3cccc(Cl)c3)cc2)cc1 [Cpd 14]
Emax at 12 µM ([1]; agonist response): 53% | Ki [2]: 4.62 µM | inhibition at 1 µM [2]: 55%

Structure (SMILES): CC(=O)Nc1cccc(-c2ccc(NC(=O)CCc3ccc(C(C)(C)C)cc3)cc2C(=O)O)c1 [Cpd 73]
h % I (10 μM) [1]: 20% | h Binding % I (1 μM) [2]: 1%

Structure (SMILES): CC(C)(C)c1ccc(CCC(=O)Nc2ccc(-c3ccccc3O)c(CO)c2)cc1 [Cpd 92]
Emax at 6 µM ([1]; agonist response, 6 μM): 133% | EC50 [1]: 0.111 µM | inhibition at 1 µM [1]: 84% | Ki [2]: 0.089 µM

Structure (SMILES): Cc1cc(-c2cccc(O)c2)ccc1NC(=O)CCc1ccc(C(C)(C)C)cc1 [Cpd 58]
% Response Relative to EC80 of Capsaicin (6 μM) ([1]; agonist response, 6 μM): 19% | h Binding % I (1 μM) [2]: 43%

Structure (SMILES): CC(C)(C)c1ccc(CCC(=O)Nc2ccc(-c3ccncc3)cc2)cc1 [Cpd 111, 3-(4-tert-butyl-phenyl)-N-(4-pyridin-4-yl-phenyl)-propionamide]
Emax at 12 µM ([1]; agonist response): 119% | EC50 [1]: 0.018 µM | Ki [2]: 0.168 µM | inhibition at 1 µM [2]: 61%

Now from value to molecule:

IC50 [1]: 0.041 µM | inhibition at 1 µM [1]: 100% | Ki [2]: 0.0887 µM
Structure (SMILES): Cc1cn(-c2ccc(NC(=O)/C=C/c3ccc(SC(F)(F)F)cc3)cc2C(F)(F)F)cn1 [Cpd 208]

IC50 [1]: 0.121 µM | inhibition at 5 µM [1]: 100% | Ki [2]: 0.0998 µM
Structure (SMILES): O=C(CCc1ccc(C(F)(F)F)cc1)Nc1ccc(-c2ccncc2)c(C(F)(F)F)c1 [Cpd 220]

Emax at 12 µM ([1]; agonist response): 96% | Ki [2]: 0.093 µM | inhibition at 1 µM [2]: 66%
Structure (SMILES): CC(C)(C)c1ccc(CCC(=O)Nc2ccc(-c3ccncc3)nc2)cc1 [Cpd 137]

Emax at 12 µM ([1]; agonist response): 79% | Ki [2]: 0.0312 µM | inhibition at 1 µM [2]: 90%
Structure (SMILES): CC(C)(C)c1ccc(CCC(=O)Nc2ccc(-c3ccc(CO)cc3)nc2)cc1 [Cpd 135]

% Response Relative to EC80 of Capsaicin (12 μM) ([1]; agonist response): 100% | h Binding % I (1 μM) [2]: 37%
Structure (SMILES): O=C(CCc1ccc(C(F)(F)F)cc1)Nc1ccc(-c2ccncc2)nc1 [Cpd 152]

IC50 [1]: 0.377 µM | inhibition at 1 µM [2]: 1.1%
Structure (SMILES): CC(C)(C)c1ccc(CCC(=O)Nc2cccc(-c3ncccn3)c2)cc1 [Cpd 116]

inhibition at 5 µM [1]: 67% | Ki [2]: 0.0844 µM
Structure (SMILES): O=C(CCc1ccc(C(F)(F)F)cc1)Nc1ccc(-n2cnc(Cl)c2Cl)cc1 [Cpd 263]

inhibition at 1 µM [1]: 99% | inhibition at 5 µM [1]: 22% | Ki [2]: 0.066 µM
Structure (SMILES): CC(C)(C)c1ccc(CCC(=O)Nc2ccc(-c3ccccn3)nc2)cc1 [Cpd 176]

IC50 [1]: 0.0394 µM | inhibition at 5 µM [1]: 100% | Ki [2]: 0.0646 µM
Structure (SMILES): O=C(CCc1ccc(C(F)(F)F)cc1)Nc1ccc(-c2cccc(O)c2)c(C(F)(F)F)c1 [Cpd 206]

IC50 [1]: 0.171 µM | inhibition at 1 µM [1]: 92% | Ki [2]: 0.0416 µM
Structure (SMILES): O=C(/C=C/c1ccc(SC(F)(F)F)cc1)Nc1ccc(-n2cnc(Cl)c2Cl)c(C(F)(F)F)c1 [Cpd 228]

IC50 [1]: 0.142 µM | h % I (5 μM) [1]: 100% | Ki [2]: 0.0826 µM
Structure (SMILES): O=C(CCc1ccc(C(F)(F)F)cc1)Nc1ccc(-c2ccc(CO)cc2)c(C(F)(F)F)c1 [Cpd 223]

% Response Relative to EC80 of Capsaicin (12 μM) ([1]; agonist response): 113% | Ki [2]: 0.461 µM | h Binding % I (1 μM) [2]: 61%
Structure (SMILES): CC(C)(C)c1csc(CCC(=O)Nc2ccc(-c3ccncc3)cc2)c1 [Cpd 138]

Emax at 6 µM ([1]; agonist response, 6 μM): 45% | inhibition at 1 µM [1]: 96% | Ki [2]: 0.048 µM
Structure (SMILES): CC(C)(C)c1ccc(CCC(=O)Nc2cc(F)c(-c3ccncc3)c(F)c2)cc1 [Cpd 169]

IC50 [1]: 0.0352 µM | inhibition at 1 µM [1]: 99% | inhibition at 5 µM [1]: 100% | Ki [2]: 0.034 µM
Structure (SMILES): Cc1cc(NC(=O)CCc2ccc(C(F)(F)F)cc2)cnc1-n1cnc(Cl)c1Cl [Cpd 203, N-[6-(4,5-Dichloro-imidazol-1-yl)-5-methyl-pyridin-3-yl]-3-(4-trifluoromethyl-phenyl)-propionamide]

IC50 [1]: 0.038 µM | inhibition at 1 µM [1]: 100% | Ki [2]: 0.0444 µM
Structure (SMILES): Cc1cn(-c2ccc(NC(=O)/C=C/c3ccc(S(=O)(=O)C(F)(F)F)cc3)cc2C(F)(F)F)cn1 [Cpd 205, trans-N-[4-(4-Methyl-imidazol-1-yl)-3-trifluoromethyl-phenyl]-3-(4-trifluoromethanesulfonyl-phenyl)-acrylamide]

h % I (5 μM) [1]: 98% | h Binding % I (1 μM) [2]: 56%
Structure (SMILES): Cn1cnc(-c2ccc(NC(=O)CCc3ccc(C(C)(C)C)cc3)cc2)c1 [Cpd 190]

IC50 [1]: 0.952 µM | inhibition at 1 µM [1]: 52% | Ki [2]: 0.0443 µM
Structure (SMILES): O=C(CCc1ccc(C(F)(F)F)cc1)Nc1ccc(-n2cnc3ccccc32)c(C(F)(F)F)c1 [Cpd 253]

IC50 [1]: 0.0301 µM | inhibition at 5 µM [1]: 100% | Ki [2]: 0.212 µM
Structure (SMILES): CC(C)(C)c1ccc(CCC(=O)Nc2cnc(-n3ccnc3)c(C(F)(F)F)c2)cc1 [Cpd 202, 3-(4-tert-Butyl-phenyl)-N-(6-imidazol-1-yl-5-trifluoromethyl-pyridin-3-yl)-propionamide]

h % I (5 μM) [1]: 94% | h Binding % I (1 μM) [2]: 45%
Structure (SMILES): CC(C)(C)c1ccc(CCC(=O)Nc2ccc(C3CN=CO3)cc2)cc1 (stereo not drawn) [Cpd 194]

IC50 [1]: 0.06 µM | inhibition at 5 µM [1]: 99% | Ki [2]: 0.0222 µM
Structure (SMILES): CC(C)(C)c1ccc(CCC(=O)Nc2ccc(-n3cnc(Cl)c3Cl)cc2)cc1 [Cpd 211]

h % I (5 μM) [1]: 19% | h Binding % I (1 μM) [2]: 3%
Structure (SMILES): CC(C)(C)c1ccc(CCC(=O)Nc2ccc(-c3nn[nH]n3)cc2)cc1 [Cpd 199]

inhibition at 1 µM [1]: 75% | Ki [2]: 0.142 µM
Structure (SMILES): CC(C)(C)c1ccc(CCC(=O)Nc2cc(F)c(-c3ccccn3)c(F)c2)cc1 [Cpd 175]

IC50 [1]: 0.000283 µM | h Binding % I (1 μM) [2]: 62%
Structure (SMILES): CC(C)(C)c1ccc(CCC(=O)Nc2ccc(-c3csnn3)cc2)cc1 [Cpd 197]
